Data on 15 compounds can be found in patent US11091428B2 (HAPLOGEN GMBH, priority 2016, dated 2021).

The EC50 is the concentration giving half of the maximal effect. Usually IC50 stands for the concentration at which inhibition is half-maximal.

Where two headings read alike, the source gives them in different places.

The test system of assay [1] is picornaviruses (CVB1, HRV-A2, HRV-A23, EV-68). Kind of assay: Anti-picornavirus cytopathic effect (CPE) reduction assay on HeLa H1 cells. In kind it is cell-based. Conditions: HeLa H1 cells, 48 h, category from averaging the EC50 values from four picornaviruses (CVB1, HRV-A2, HRV-A23, EV68), read-out: EC50 values of the compounds determined in the anti-picornavirus assay. The method in brief: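 HeLa H1 cells pre-treated 2 h with serially diluted compound in DMEM/2% FBS, then infected at an MOI giving full CPE in 2 days. After 48 h at 37° C, viability read by CellTiterBlue fluorescence (ex 560/em 590 nm), normalised to infected and uninfected vehicle controls; EC50 by non-linear regression, category from mean of four viruses.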
Background: Damage to the host cells serves as the signal in cytopathic effect assays.

A further assay addresses T1, PLA2G16 (Homo sapiens, UniProt P53816).
T1 construct: Hexa-His (N); made in house; host or cells: E. coli BL21(DE3)
T1 sequence (P53816 1-162): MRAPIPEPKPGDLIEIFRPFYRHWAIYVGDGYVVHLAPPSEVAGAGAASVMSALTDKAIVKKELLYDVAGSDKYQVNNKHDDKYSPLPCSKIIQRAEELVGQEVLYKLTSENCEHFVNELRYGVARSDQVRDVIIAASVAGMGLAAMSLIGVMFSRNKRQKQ
Kind of assay: Enzyme activity assay for PLA2G16 (Red/Green BODIPY PC-A2 fluorescence). Conditions: His-tagged PLA2G16, 4 min pre-incubation, 2 nM to 50 μM; read-out: IC50 values of the compounds determined in the enzyme activity assay for PLA2G16. In kind it is biochemical. The method in brief: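 N-His-tagged human PLA2G16 from E. coli, Ni-NTA purified. Pre-incubated 4 min with compound (2 nM–50 μM final) in pH 8.5 Tris/NaCl buffer with 5 mM glutathione, then BODIPY PC-A2 in DOPC/DOPG/cholesterol vesicles added. Fluorescence (ex 480/em 530 nm) increase over 10 min taken as activity; IC50 by non-linear regression.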

Turning to `C[C@@H]1CC(=O)N(Cc2ccccc2)[C@@H]1C(=O)C(=O)NC1CC1` (single isomer, unassigned) [FP 338], in assay [1], the EC50 was 1 to 10 µM. Further, the IC50 on PLA2G16 is < 1 µM.

For `CC(=O)NCCCCCCNC(=O)C(=O)C1CCC(=O)N1Cc1ccc(Cl)cc1` (stereo not drawn) [FP 330, 2-{1-[(4-Chlorophenyl)methyl]-5-oxopyrrolidin-2-yl}-N-(6-acetamidohexyl)-2-oxoacetamide], in assay [1] (Enterovirus B, HeLa H1, 48 h), the concentration for a half-maximal effect (EC50) fell in the range of 1 to 10 µM. In addition, the IC50 on PLA2G16 was < 1 µM.

Turning to `CC(C)SCCNC(=O)C(=O)C1CCC(=O)N1Cc1ccc(Cl)cc1` (stereo not drawn) [FP 257, 2-{1-[(4-Chlorophenyl)methyl]-5-oxopyrrolidin-2-yl}-2-oxo-N-[2-(propan-2-ylsulfanyl)-ethyl]acetamide], in assay [1] (Enterovirus B, HeLa H1, 48 h), the EC50 was < 1 µM. In addition, the IC50 on PLA2G16 was < 1 µM.

`O=C(NC1CCCC1)C(=O)[C@H]1CCC(=O)N1Cc1ccccc1` [FP 239, 2-[(2R)-1-Benzyl-5-oxopyrrolidin-2-yl]-N-cyclopentyl-2-oxoacetamide]: the EC50 in assay [1] (Enterovirus B, HeLa H1, 48 h) is < 1 µM. On PLA2G16, the IC50 is < 1 µM.

`COc1ccccc1N(C=O)C(C)C(=O)C(=O)N[C@@H](C)C(C)C` (stereo partly drawn) [FP 108, 3-[N-(2-Methoxyphenyl)formamido]-N-[(2S)-3-methylbutan-2-yl]-2-oxobutanamide]: the EC50 in assay [1] (Enterovirus B, HeLa H1, 48 h) is < 1 µM. For the same compound, the 50% inhibitory concentration (IC50) on PLA2G16 was < 1 µM.

Take `CC(C(=O)C(=O)NCC1CCCCC1)N(C=O)CC1CCN(C(=O)OC(C)(C)C)CC1` (stereo not drawn) [FP 53, tert-Butyl 4-[(N-{1-[(cyclohexylmethyl)carbamoyl]-1-oxopropan-2-yl}formamido)-methyl]piperidine-1-carboxylate]: the EC50 in assay [1] (Enterovirus B, HeLa H1, 48 h) was in the range of 1 to 10 µM. For the same compound, the IC50 on PLA2G16 is < 1 µM.

Regarding `CC[C@@H](C)NC(=O)C(=O)C(C)N(C=O)c1ccccc1OC` (stereo partly drawn) [FP 102, N-[(2R)-Butan-2-yl]-3-[N-(2-methoxyphenyl)formamido]-2-oxobutanamide], the EC50 in assay [1] (Enterovirus B, HeLa H1, 48 h) is 1 to 10 µM. Moreover, the IC50 on PLA2G16 is < 1 µM.

For the compound `Cc1ccccc1S(=O)(=O)NC(C)C(=O)C(=O)NCC1CC1` (stereo not drawn) [FP 190, N-(Cyclopropylmethyl)-3-(2-methylbenzenesulfonamido)-2-oxobutanamide], the EC50 in assay [1] (Enterovirus B, HeLa H1, 48 h) was in the range of 1 to 10 µM. Besides, at PLA2G16, the IC50 is < 1 µM.

With `CC(C(=O)C(=O)NCc1cccc(Cl)c1)N(C)C(=O)c1ccccc1` (stereo not drawn) [FP 160, N-[(3-Chlorophenyl)methyl]-3-(N-methyl-1-phenylformamido)-2-oxobutanamide], the EC50 in assay [1] (Enterovirus B, HeLa H1, 48 h) was in the range of 1 to 10 µM. In addition, on PLA2G16, the IC50 is < 1 µM.

As for `CCCC(=O)N(c1ccccc1OC)C(C)C(=O)C(=O)NCc1cccc(Cl)c1` (stereo not drawn) [FP 143, N-[(3-Chlorophenyl)methyl]-3-[N-(2-methoxyphenyl)butanamido]-2-oxobutanamide], the concentration giving a half-maximal response (EC50) in assay [1] (Enterovirus B, HeLa H1, 48 h) fell in the range of 1 to 10 µM. In addition, the IC50 at PLA2G16 was < 1 µM.

Regarding `O=C(NC1CC2(COC2)C1)C(=O)[C@H]1CCC(=O)N1Cc1ccccc1` [FP 297, 2-[(2R)-1-Benzyl-5-oxopyrrolidin-2-yl]-N-{2-oxaspiro[3.3]heptan-6-yl}-2-oxoacetamide], the EC50 in assay [1] (Enterovirus B, HeLa H1, 48 h) fell in the range of 1 to 10 µM. The IC50 on PLA2G16 was < 1 µM.

On to `CC(C)NC(=O)C(=O)C(C)N(C=O)C1CCCCC1` (stereo not drawn) [FP 36, 3-(N-Cyclohexylformamido)-2-oxo-N-(propan-2-yl)butanamide], for which the half-maximal effective concentration (EC50) in assay [1] (Enterovirus B, HeLa H1, 48 h) lay in the range of 1 to 10 µM. Also, the IC50 on PLA2G16 is < 1 µM.

As for `CC(=O)NCCNC(=O)C(=O)C1CCC(=O)N1Cc1ccc(Cl)cc1` (stereo not drawn) [FP 243, 2-{1-[(4-Chlorophenyl)methyl]-5-oxopyrrolidin-2-yl}-N-(2-acetamidoethyl)-2-oxoacetamide], the EC50 in assay [1] (Enterovirus B, HeLa H1, 48 h) was > 10 µM. Also, the IC50 at PLA2G16 lay within 1 to 10 µM.

As to `CC(C(=O)C(=O)NCC1CC1)N(C=O)Cc1ccccc1` (stereo not drawn) [FP 37, 3-(N-Benzylformamido)-N-(cyclopropyylmethyl)-2-oxobutanamide], in assay [1] (Enterovirus B, HeLa H1, 48 h), the half-maximal effective concentration (EC50) was < 1 µM. In addition, the IC50 on PLA2G16 is < 1 µM.

For `CCC(NC(=O)c1ccccc1)C(=O)C(=O)NC1CC1` (stereo not drawn) [FP 183, N-Cyclopropyl-2-oxo-3-(phenylformamido)pentanamide], the EC50 in assay [1] (Enterovirus B, HeLa H1, 48 h) is > 10 µM. On PLA2G16, the IC50 was 1 to 10 µM.
